Assays:
[1] = target: T1, rat FAAH (Rattus norvegicus, UniProt P97612); assay: Rat Fatty Acid Amide Hydrolase (FAAH) assay, rat brain homogenate, [3H]-anandamide; format: biochemical; settings: 3 separate experiments, each in duplicate
T1 construct: from tissue; host or cells: male Sprague Dawley rat brain, total homogenate
T1 sequence (P97612 1-579): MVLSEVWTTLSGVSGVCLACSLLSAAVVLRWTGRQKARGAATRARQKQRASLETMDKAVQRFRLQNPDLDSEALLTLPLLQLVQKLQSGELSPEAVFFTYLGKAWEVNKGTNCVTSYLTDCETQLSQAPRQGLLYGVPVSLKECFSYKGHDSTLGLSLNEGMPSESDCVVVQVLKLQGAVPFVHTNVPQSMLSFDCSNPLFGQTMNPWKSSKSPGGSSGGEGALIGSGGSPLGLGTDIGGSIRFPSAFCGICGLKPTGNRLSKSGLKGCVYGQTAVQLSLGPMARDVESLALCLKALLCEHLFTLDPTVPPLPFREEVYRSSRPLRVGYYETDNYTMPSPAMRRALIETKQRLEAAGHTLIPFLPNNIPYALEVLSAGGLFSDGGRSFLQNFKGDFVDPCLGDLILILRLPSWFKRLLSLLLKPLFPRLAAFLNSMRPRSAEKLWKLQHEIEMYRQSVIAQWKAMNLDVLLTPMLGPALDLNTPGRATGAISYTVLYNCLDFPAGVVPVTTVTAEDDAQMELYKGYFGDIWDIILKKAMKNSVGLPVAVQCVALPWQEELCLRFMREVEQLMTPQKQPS
Procedure: Rat Fatty Acid Amide Hydrolase (FAAH) Assay
Male Sprague Dawley rat brains were homogenized in a potter in 20 mM Tris-HCl pH7.4, 0.32M sucrose, protein concentration was measured and samples aliquot stored at −80° C. until use.
FAAH activity was measured using 50 μg of total rat brain homogenate pre-incubated for 10 minutes at 37° C. in 445.5 μL of assay buffer (50 mM Tris-HCl pH7.4, 0.05% Fatty acid-free BSA) with 4.5 μL of inhibitor at appropriate concentration in DMSO, or DMSO alone to measure FAAH total activity. The blank (no activity sample) was prepared with 445.5 μL of assay buffer and 4.5 μL of DMSO without the 50 μg of total rat brain homogenate.
After 10 minutes of pre-incubation, the reaction was started by the addition of 50 μL of substrate for 30 min at 37° C. The substrate is prepared in assay buffer in order to achieve the final concentration of 1 μM Arachidonoyl-ethanolamide (N.90050, Cayman Chemical) and 0.6 nM Anandamide [ethanolamine-1-^3H] (American Radiolabeled Chemicals Inc., ART.0626, 1 mCi/ml, specific activity 60 Ci/mmol).
The reaction was stopped by with the addition of cold 1:1 CHCl3/Methanol. After 10 minutes of centrifugation (845×g at 4° C.) 600 μL of the aqueous phase was transferred into scintillation vials previously filled with 3 mL of scintillation fluid (ULTIMA GOLD, Cat. 6013329, Perkin Elmer Inc.).
Radioactivity was measured by liquid scintillation counting (Microbeta2 Lumijet, Perkin Elmer Inc.).
(§1) EC50 or IC50 values (concentrations causing half-maximal response or inhibition of control agonist response) were determined by non-linear regression analysis of the Log [concentration]/response curves generated with mean replicate values using a four parameter Hill equation curve fitting with GraphPad Prism 5 (GraphPad Software Inc., CA—USA).

[2] = target: T2, human FAAH-1 (Homo sapiens, UniProt O00519); assay: Human recombinant Fatty Acid Amide Hydrolase-1 (FAAH-1) fluorescent assay, Hek293-hFAAH-1 membranes; format: biochemical; settings: 3 separate experiments, each in triplicate
T2 construct: expressed in transfected cells; host or cells: Hek293 cells stably transfected with human FAAH-1; membrane preparation
T2 sequence (O00519 1-579): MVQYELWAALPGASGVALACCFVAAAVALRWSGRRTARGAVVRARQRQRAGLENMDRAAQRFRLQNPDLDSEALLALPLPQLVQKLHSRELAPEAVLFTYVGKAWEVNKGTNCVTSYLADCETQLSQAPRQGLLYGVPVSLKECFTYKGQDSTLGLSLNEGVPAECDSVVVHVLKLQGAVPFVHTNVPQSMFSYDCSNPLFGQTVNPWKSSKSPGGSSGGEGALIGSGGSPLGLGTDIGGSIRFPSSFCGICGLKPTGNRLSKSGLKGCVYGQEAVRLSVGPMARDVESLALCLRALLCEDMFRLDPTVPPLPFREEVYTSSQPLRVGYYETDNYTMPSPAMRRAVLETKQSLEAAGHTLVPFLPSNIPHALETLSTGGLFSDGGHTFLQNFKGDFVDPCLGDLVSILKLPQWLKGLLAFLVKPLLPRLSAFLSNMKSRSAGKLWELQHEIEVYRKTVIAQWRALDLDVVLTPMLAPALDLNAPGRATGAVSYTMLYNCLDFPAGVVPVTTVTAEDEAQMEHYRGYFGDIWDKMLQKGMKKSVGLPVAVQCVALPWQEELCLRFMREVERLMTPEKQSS
Procedure: Human Recombinant Fatty Acid Amide Hydrolase-1 (FAAH-1) Fluorescent Assay
Hek293 cells stably transfected with human FAAH-1 were maintained in DMEM containing 10% FBS, 1% pen/strep and 500 μg/mL G418 to maintain selective pressure. Cells were scraped off with cold PBS1× pH7.4 from plates and collected by centrifugation (500 g, 10 minutes, 4° C.); cells pellets were re-suspended in homogenizing buffer (20 mM Tris-HCl pH7.4, 0.32M sucrose), disrupted by sonication (10 pulses, 5 times) and centrifuged at 800×g for 15 minutes at 4° C.; the resultant supernatants collected were then centrifuged at 105,000×g for 1 hr at 4° C. and membranes pellets were re-suspended in PBS1× pH7.4.
Protein concentration was measured and samples aliquot stored at −80° C. until use.
The blank (no activity) was prepared using 180 μL of assay buffer without Hek293-hFAAH-1 membrane preparation and 10 μL of DMSO.
After 50 minutes of pre-incubation of compounds with the enzyme at 37° C., the reaction was started by the addition of 10 μL of substrate (AMC Arachidonyl Amide, N.10005098, Cayman Chemical) for 30 min at 37° C. The substrate is prepared in Ethanol in order to achieve the final concentration of 2 μM.
Fluorescence was detected with Tecan Infinite M200 nanoquant (Tecan Group Ltd.) at an excitation wavelength 350 nm and an emission wavelength 460 nm.
as §1

[3] = target: T3, human-D3R (Homo sapiens, UniProt P35462); assay: D3 Dopamine Receptor (D3dR) cellular assay, cAMP HTRF functional assay in human-D3R expressing CHO cells; format: cell-based
T3 construct: expressed in transfected cells; host or cells: CHO cell line stably transfected with human D3R
T3 sequence (P35462 whole entry): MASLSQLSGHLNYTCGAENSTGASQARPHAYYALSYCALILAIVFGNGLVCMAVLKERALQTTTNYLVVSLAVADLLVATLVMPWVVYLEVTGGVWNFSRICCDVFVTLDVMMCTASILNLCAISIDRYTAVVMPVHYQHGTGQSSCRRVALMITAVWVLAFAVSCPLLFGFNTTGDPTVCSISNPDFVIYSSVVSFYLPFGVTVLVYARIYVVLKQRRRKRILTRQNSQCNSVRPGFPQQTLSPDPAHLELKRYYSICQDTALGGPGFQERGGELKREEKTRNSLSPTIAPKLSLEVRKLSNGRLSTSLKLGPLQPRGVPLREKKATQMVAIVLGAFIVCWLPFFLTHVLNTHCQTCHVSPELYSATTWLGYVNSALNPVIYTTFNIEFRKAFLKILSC
Procedure: D3 Dopamine Receptor (D3dR) Cellular Assay
Activity on D3R was tested with a cAMP functional assay on a stably transfected human-D3R expressing CHO cell line. On the day of the assay performance the cells were washed twice with PBS (w/o calcium and magnesium) and dislodged with a cell scraper, transferred to PBS, centrifuged and re-suspended in HBSS (w/o calcium and magnesium), supplemented with 1 g/L glucose and […] IBMX. The cell suspension was seeded on a 384 well plate (Greiner) and the assay was performed by adding compounds either test compounds alone (for agonist activity), or with test compound after a pre-incubation with 10 nM Dopamine as a stimulant (for antagonistic activity). After incubation (30 min at RT) the cell stimulation was stopped by adding the detecting reagents (cAMP-XL665 and anti-cAMP cryptate) diluted in lysis buffer. The signal was quantified by Homogenous Time-Resolved Fluorescence (HTRF) on a Perkin Elmer Envision plate reader after one hour of incubation at RT.
as §1

Row | Structure (SMILES) | IC50 [1] [nM] | IC50 [2] [nM] | Emax ([3]; CHO, 0.5 h, % of 300 nM Dopamine response, read-out: Dopamine D3 % of Agonist Activity) [%] | EC50 ([3]; cAMP assay, CHO human-D3R, one experiment in duplicate) [nM]
1 | COc1ccccc1N1CCN(CCCCNC(=O)Oc2cccc(-c3cccc(C(N)=O)c3)c2)CC1 [Example 1, [3-(3-carbamoylphenyl)phenyl] N-[4-[4-(2-methoxyphenyl)piperazin-1-yl]butyl] carbamate] | 0.94 |  |  | 
2 | NC(=O)c1cccc(-c2cccc(OC(=O)NCCCCN3CCN(c4cccc(Cl)c4Cl)CC3)c2)c1 [Example 2, [3-(3-carbamoylphenyl)phenyl] N-[4-[4-(2,3-dichlorophenyl)piperazin-1-yl]butyl] carbamate] | 0.3 |  |  | 
3 | NC(=O)c1cccc(-c2cccc(OC(=O)NCCCN3CCN(c4cccc(Cl)c4Cl)CC3)c2)c1 [Example 3, [3-(3-carbamoylphenyl)phenyl] N-[3-[4-(2,3-dichlorophenyl)piperazin-1-yl]propyl]carbamate] | 0.11 |  |  | 
4 | NC(=O)c1cccc(-c2cccc(OC(=O)NCCCN3CCN(c4ccccc4)CC3)c2)c1 [Example 4, [3-(3-carbamoylphenyl)phenyl] N-[3-(4-phenylpiperazin-1-yl)propyl]carbamate] | 0.32 |  |  | 
5 | O=C(NCCCN1CCN(c2ccccc2)CC1)Oc1cccc(-c2ccccc2)c1 [Example 5, (3-phenylphenyl) N-[3-(4-phenylpiperazin-1-yl)propyl]carbamate] | 3 | 3.4 | 89.7 | 13
6 | NC(=O)c1cccc(-c2ccc(OC(=O)NCCCN3CCN(c4cccc(Cl)c4Cl)CC3)cc2)c1 [Example 6, [4-(3-carbamoylphenyl)phenyl] N-[3-[4-(2,3-dichlorophenyl)piperazin-1-yl]propyl]carbamate] | 1.5 |  |  | 
7 | NC(=O)c1cccc(-c2ccc(OC(=O)NCCCCN3CCN(c4cccc(Cl)c4Cl)CC3)cc2)c1 [Example 7, [4-(3-carbamoylphenyl)phenyl] N-[4-[4-(2,3-dichlorophenyl)piperazin-1-yl]butyl]carbamate] | 0.72 |  |  | 

— US9828352B2, “Phenyl carbamates and their use as inhibitors of the fatty acid amide hydrolase (FAAH) enzyme and modulators of the D3 dopamine receptor (D3DR)” (FONDAZIONE ISTITUTO ITALIANO DI TECNOLOGIA, priority 2013, dated 2017)
